The values that follow come from patent publication US12600709B2, “Nonpeptide somatostatin type 5 receptor agonists and uses thereof” (Crinetics Pharmaceuticals, Inc., priority 2019, dated 2026).

Assay [1] concerns the target T1, human somatostatin receptor subtype 5 (Homo sapiens, UniProt P35346).
T1 construct: expressed in transfected cells
The experiment in a line: cAMP assay for SST5R (inhibition of cAMP in CHO-K1 cells). It is filed as cell-based. The following applies: for EC50: inhibition of cAMP via human SST5 receptor, read-out: SST5 potency; for Fold selectivity for SST5 vs SST2: class symbols, SST5 receptor over SST2 receptor. In a few lines: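 CHO-K1 cells stably expressing human SSTR5 were treated 20 min at 37 °C with compounds plus 1.6 μM NKH477 in HBSS, 0.5 mM HEPES pH 7.4, 0.1% BSA, 0.2 mM IBMX. Lysate cAMP measured by HTRF against a standard curve; EC50 from cAMP-versus-concentration plots.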
For orientation: Cyclic AMP is a second messenger, typically raised through Gs and lowered through Gi signalling.

Assay [2] concerns the target T2, human somatostatin receptor subtype 2 (Homo sapiens, UniProt P30874).
T2 construct: expressed in transfected cells
In words: cAMP assay for SST2R (inhibition of cAMP in CHO-K1 cells). It is filed as cell-based. As to conditions: Table B; inhibition of cAMP via human SST2 receptor; read-out: SST2 potency. In short, it runs like this: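 Agonism read as decrease in NKH477 (1.6 μM)-stimulated cAMP: compounds applied 20 min, 37° C, with 0.2 mM IBMX, to CHO-K1 stably expressing human SSTR2. cAMP quantified in lysates by time-resolved fluorescence (HTRF kit, 1-24 h RT), standard-curve regression, then EC50.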

Like-named read-outs stand apart in the source and are kept apart here.

T1 sequence (P35346 whole entry): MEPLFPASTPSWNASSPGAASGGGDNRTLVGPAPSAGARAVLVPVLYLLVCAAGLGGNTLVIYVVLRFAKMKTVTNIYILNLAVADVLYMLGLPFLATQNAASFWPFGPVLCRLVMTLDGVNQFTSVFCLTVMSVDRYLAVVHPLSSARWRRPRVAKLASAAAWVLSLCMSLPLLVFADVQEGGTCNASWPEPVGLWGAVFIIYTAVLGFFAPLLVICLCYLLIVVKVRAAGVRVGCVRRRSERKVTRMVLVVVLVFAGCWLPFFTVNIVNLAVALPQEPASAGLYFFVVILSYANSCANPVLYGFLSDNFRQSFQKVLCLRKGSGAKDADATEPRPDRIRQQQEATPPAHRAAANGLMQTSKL
T2 sequence (P30874 whole entry): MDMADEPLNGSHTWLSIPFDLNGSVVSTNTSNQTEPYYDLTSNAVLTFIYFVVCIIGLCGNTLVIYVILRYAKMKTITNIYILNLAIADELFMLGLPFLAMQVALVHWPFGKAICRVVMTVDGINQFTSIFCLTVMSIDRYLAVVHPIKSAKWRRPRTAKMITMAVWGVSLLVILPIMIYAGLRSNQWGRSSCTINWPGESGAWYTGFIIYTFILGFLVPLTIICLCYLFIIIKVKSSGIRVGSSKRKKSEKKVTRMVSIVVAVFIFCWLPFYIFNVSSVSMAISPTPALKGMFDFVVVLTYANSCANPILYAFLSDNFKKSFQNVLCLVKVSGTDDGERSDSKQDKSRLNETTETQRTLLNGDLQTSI

For `C[C@H](NC(=O)c1cnc(C#N)c(-c2cc(F)cc(F)c2)c1N1CC[C@](C)(N)C1)c1ccccn1` [1-103, 4-[(3S)-3-amino-3-methylpyrrolidin-1-yl]-6-cyano-5-(3,5-difluorophenyl)-N-[(1S)-1-(pyridin-2-yl)ethyl]pyridine-3-carboxamide], the EC50 in assay [1] (Table A) was under 10 nM; in assay [1] (Table B), under 10 nM; in assay [2], over 1000 nM. Further, in assay [1] (Table B), the “Fold selectivity for SST5 vs SST2” value is on record as “+++ (+++=>500)”.

Consider `Cn1nccc1CNC(=O)c1cnc(C#N)c(-c2cc(F)cc(F)c2)c1N1CC[C@](C)(N)C1` [1-104, 4-[(3S)-3-amino-3-methylpyrrolidin-1-yl]-6-cyano-5-(3,5-difluorophenyl)-N-[(1-methyl-1H-pyrazol-5-yl)methyl]pyridine-3-carboxamide], for which the results for the EC50 in assay [1] (Table A), in assay [1] (Table B) and in assay [2] were under 10 nM, under 10 nM and over 1000 nM, respectively. The “Fold selectivity for SST5 vs SST2” value in assay [1] (Table B) was “+++ (+++=>500)”.

For `C[C@]1(N)CCN(c2c(C(=O)NCc3ncccn3)cnc(C#N)c2-c2cc(F)cc(F)c2)C1` [1-108, 4-[(3S)-3-amino-3-methylpyrrolidin-1-yl]-6-cyano-5-(3,5-difluorophenyl)-N-[(pyrimidin-2-yl)methyl]pyridine-3-carboxamide], the EC50 in assay [1] (Table A) is under 10 nM; in assay [1] (Table B), under 10 nM; in assay [2] it was over 1000 nM. In addition, the “Fold selectivity for SST5 vs SST2” value in assay [1] (Table B) is recorded as “+++ (+++=>500)”.

For `N#Cc1ncc(C(=O)NCCCc2ccccc2)c(N2CC[C@H](N)C2)c1-c1cc(F)cc(F)c1` [1-110, 4-[(3S)-3-aminopyrrolidin-1-yl]-6-cyano-5-(3,5-difluorophenyl)-N-(3-phenylpropyl)pyridine-3-carboxamide], the EC50 in assay [1] (Table A) was under 10 nM; in assay [1] (Table B), under 10 nM; in assay [2] it was over 1000 nM. For the same molecule, in assay [1] (Table B), the “Fold selectivity for SST5 vs SST2” value is given as “+++ (+++=>500)”.

As for `C[C@]1(N)CCN(c2c(C(=O)NC3CCCCC3)cncc2-c2cc(F)cc(F)c2)C1` [1-112, 4-[(3S)-3-amino-3-methylpyrrolidin-1-yl]-N-cyclohexyl-5-(3,5-difluorophenyl)pyridine-3-carboxamide], the EC50 in assay [1] (Table A) was under 10 nM; in assay [1] (Table B), under 10 nM; in assay [2], 100 to 1000 nM. For the same molecule, in assay [1] (Table B), the “Fold selectivity for SST5 vs SST2” value was “+++ (+++=>500)”.

Regarding `CC1(C)CC(NC(=O)c2cnc(C#N)c(-c3cc(F)cc(F)c3)c2N2CC[C@](C)(N)C2)CCO1` (stereo partly drawn) [1-113, 4-[(3S)-3-amino-3-methylpyrrolidin-1-yl]-6-cyano-5-(3,5-difluorophenyl)-N-(2,2-dimethyloxan-4-yl)pyridine-3-carboxamide], the EC50 in assay [1] (Table A) was under 10 nM; in assay [1] (Table B) it was under 10 nM; in assay [2], over 1000 nM. In addition, in assay [1] (Table B), the “Fold selectivity for SST5 vs SST2” value is reported as “+++ (+++=>500)”.

For `C[C@]1(N)CCN(c2c(C(=O)NCc3ccon3)cnc(C#N)c2-c2cc(F)cc(F)c2)C1` [1-114, 4-[(3S)-3-amino-3-methylpyrrolidin-1-yl]-6-cyano-5-(3,5-difluorophenyl)-N-[(1,2-oxazol-3-yl)methyl]pyridine-3-carboxamide], the EC50 is under 10 nM in assay [1] (Table A), under 10 nM in assay [1] (Table B) and over 1000 nM in assay [2]. In addition, the “Fold selectivity for SST5 vs SST2” value in assay [1] (Table B) is on record as “+++ (+++=>500)”.

Consider `C[C@]1(N)CCN(c2c(C(=O)NCc3ccccc3O)cnc(C#N)c2-c2cc(F)cc(F)c2)C1` [1-115, 4-[(3S)-3-amino-3-methylpyrrolidin-1-yl]-6-cyano-5-(3,5-difluorophenyl)-N-[(2-hydroxyphenyl)methyl]pyridine-3-carboxamide], for which the EC50 in assay [1] (Table A) was under 10 nM; in assay [1] (Table B) it was under 10 nM; in assay [2], over 1000 nM. Besides, in assay [1] (Table B), the “Fold selectivity for SST5 vs SST2” value is reported as “+++ (+++=>500)”.

For `COC[C@@]1(N)CCN(c2c(C(=O)N[C@@H](C)C3CC3)cnc(C#N)c2-c2cc(F)cc(F)c2)C1` [1-116, 4-[(3R)-3-amino-3-(methoxymethyl)pyrrolidin-1-yl]-6-cyano-N-[(1S)-1-cyclopropylethyl]-5-(3,5-difluorophenyl)pyridine-3-carboxamide], the EC50 in assay [1] (Table A) is under 10 nM; in assay [1] (Table B), under 10 nM; in assay [2], over 1000 nM. Besides, in assay [1] (Table B), the “Fold selectivity for SST5 vs SST2” value was “+++ (+++=>500)”.

Take `C[C@H](NC(=O)c1cnc(C#N)c(-c2cc(F)cc(F)c2)c1N1CC[C@](N)(CC(F)F)C1)C1CC1` [1-118, 4-[(3S)-3-amino-3-(2,2-difluoroethyl)pyrrolidin-1-yl]-6-cyano-N-[(1S)-1-cyclopropylethyl]-5-(3,5-difluorophenyl)pyridine-3-carboxamide]: the EC50 was under 10 nM in assay [1] (Table A), under 10 nM in assay [1] (Table B) and over 1000 nM in assay [2]. Moreover, the “Fold selectivity for SST5 vs SST2” value in assay [1] (Table B) is “+++ (+++=>500)”.

Regarding `C[C@H](NC(=O)c1cnc(C#N)c(-c2cccc(OC(F)F)c2)c1N1CC[C@](C)(N)C1)C1CC1` [1-120, 4-[(3S)-3-amino-3-methylpyrrolidin-1-yl]-6-cyano-N-[(1S)-1-cyclopropylethyl]-5-[3-(difluoromethoxy)phenyl]pyridine-3-carboxamide], the EC50 in assay [1] (Table A) was under 10 nM; in assay [1] (Table B), under 10 nM; in assay [2] it was 10 to 100 nM. The “Fold selectivity for SST5 vs SST2” value in assay [1] (Table B) is reported as “+++ (+++=>500)”.

For the molecule `C[C@H](NC(=O)c1cnc(C#N)c(-c2ccn(C)n2)c1N1CC[C@](C)(N)C1)C1CC1` [1-121, 4-[(3S)-3-amino-3-methylpyrrolidin-1-yl]-6-cyano-N-[(1S)-1-cyclopropylethyl]-5-(1-methyl-1H-pyrazol-3-yl)pyridine-3-carboxamide], the values for the EC50 in assay [1] (Table A), in assay [1] (Table B) and in assay [2] were under 10 nM, under 10 nM and over 1000 nM, respectively. Moreover, the “Fold selectivity for SST5 vs SST2” value in assay [1] (Table B) is recorded as “+++ (+++=>500)”.

On to `Cc1ncc(C(=O)N[C@@H](C)C2CC2)c(N2CC[C@](C)(N)C2)c1-c1cc(F)cc(F)c1` [1-122, 4-[(3S)-3-amino-3-methylpyrrolidin-1-yl]-N-[(1S)-1-cyclopropylethyl]-5-(3,5-difluorophenyl)-6-methylpyridine-3-carboxamide], for which the EC50 in assay [1] (Table A) is under 10 nM; in assay [1] (Table B), under 10 nM; in assay [2], 100 to 1000 nM. For the same molecule, the “Fold selectivity for SST5 vs SST2” value in assay [1] (Table B) is listed as “+++ (+++=>500)”.

`Cc1ncc(C(=O)N[C@@H](C)C2CC2)c(N2CC[C@](C)(N)C2)c1-c1cc(F)cc(C#N)c1` [1-123, 4-[(3S)-3-amino-3-methylpyrrolidin-1-yl]-5-(3-cyano-5-fluorophenyl)-N-[(1S)-1-cyclopropylethyl]-6-methylpyridine-3-carboxamide]: the figures for the EC50 in assay [1] (Table A), in assay [1] (Table B) and in assay [2] were under 10 nM, under 10 nM and 100 to 1000 nM, respectively. Besides, the “Fold selectivity for SST5 vs SST2” value in assay [1] (Table B) is “+++ (+++=>500)”.

On to `Cc1ncc(C(=O)N[C@@H](C)C2CC2)c(N2CC[C@](C)(N)C2)c1-c1cccc(F)c1` [1-124, 4-[(3S)-3-amino-3-methylpyrrolidin-1-yl]-N-[(1S)-1-cyclopropylethyl]-5-(3-fluorophenyl)-6-methylpyridine-3-carboxamide], for which the results for the EC50 in assay [1] (Table A), in assay [1] (Table B) and in assay [2] were under 10 nM, under 10 nM and 100 to 1000 nM, respectively. The “Fold selectivity for SST5 vs SST2” value in assay [1] (Table B) is “+++ (+++=>500)”.

With `Cc1ncc(C(=O)N[C@@H](C)C2CC2)c(N2CC[C@](C)(N)C2)c1-c1cc(F)cc(Cl)c1` [1-125, 4-[(3S)-3-amino-3-methylpyrrolidin-1-yl]-5-(3-chloro-5-fluorophenyl)-N-[(1S)-1-cyclopropylethyl]-6-methylpyridine-3-carboxamide], the EC50 was under 10 nM in assay [1] (Table A), under 10 nM in assay [1] (Table B) and 10 to 100 nM in assay [2]. Besides, the “Fold selectivity for SST5 vs SST2” value in assay [1] (Table B) was “+++ (+++=>500)”.

As for `CC(NC(=O)c1cnc(C#N)c(-c2cc(F)cc(F)c2)c1N1CC[C@](C)(N)C1)c1ncccn1` (stereo partly drawn) [1-126, 4-[(3S)-3-amino-3-methylpyrrolidin-1-yl]-6-cyano-5-(3,5-difluorophenyl)-N-[1-(pyrimidin-2-yl)ethyl]pyridine-3-carboxamide], the EC50 is under 10 nM in assay [1] (Table A), under 10 nM in assay [1] (Table B) and over 1000 nM in assay [2]. In addition, in assay [1] (Table B), the “Fold selectivity for SST5 vs SST2” value is reported as “+++ (+++=>500)”.

As to `C[C@H](NC(=O)c1cnc(C#N)c(-c2cccc(OC(F)(F)F)c2)c1N1CC[C@](C)(N)C1)C1CC1` [1-127, 4-[(3S)-3-amino-3-methylpyrrolidin-1-yl]-6-cyano-N-[(1S)-1-cyclopropylethyl]-5-[3-(trifluoromethoxy)phenyl]pyridine-3-carboxamide], the figures for the EC50 in assay [1] (Table A), in assay [1] (Table B) and in assay [2] were under 10 nM, under 10 nM and 100 to 1000 nM, respectively. In addition, the “Fold selectivity for SST5 vs SST2” value in assay [1] (Table B) is given as “+++ (+++=>500)”.

Regarding `Cc1ncc(-c2c(C#N)ncc(C(=O)N[C@@H](C)C3CC3)c2N2CC[C@](C)(N)C2)s1` [1-128, 4-[(3S)-3-amino-3-methylpyrrolidin-1-yl]-6-cyano-N-[(1S)-1-cyclopropylethyl]-5-(2-methyl-1,3-thiazol-5-yl)pyridine-3-carboxamide], the EC50 is under 10 nM in assay [1] (Table A), under 10 nM in assay [1] (Table B) and 100 to 1000 nM in assay [2]. Besides, in assay [1] (Table B), the “Fold selectivity for SST5 vs SST2” value is on record as “+++ (+++=>500)”.

Consider `C[C@H](NC(=O)c1cnc(C#N)c(-c2ccnc(C(F)(F)F)c2)c1N1CC[C@](C)(N)C1)C1CC1` [1-129, 4-[(3S)-3-amino-3-methylpyrrolidin-1-yl]-2-cyano-N-[(1S)-1-cyclopropylethyl]-2′-(trifluoromethyl)-[3,4′-bipyridine]-5-carboxamide], for which the EC50 in assay [1] (Table A) was under 10 nM; in assay [1] (Table B), under 10 nM; in assay [2], 100 to 1000 nM. Further, the “Fold selectivity for SST5 vs SST2” value in assay [1] (Table B) is “+++ (+++=>500)”.
